{"source": "patent US11116778B2", "about": "“Prodrugs of ALOX-15 inhibitors and methods of using the same” (EMPIRICO INC., priority 2019, dated 2021)", "key": {"[1]": {"system": "Human nasal epithelial primary cells (HNEpC)", "test": "Levels of compound 5 and compound 3 in media of human nasal epithelial primary cells, LC-MS/MS", "format": "in vitro ADME", "details": "HNEpC treated with 5 μM or 1 μM compound 5", "experimental": "(§1) Human nasal epithelial primary cells (HNEpC) (PromoCell GmbH, Heidelberg, Germany) were cultured according to the manufacturer in provided Primary Cell media in 24 well plates at a density of 25,000 cells per well. Cells were treated with 5 μM or 1 μM of compound 5 or vehicle only (water) in media containing 20 ng/mL IL-13 for 24 hours in a 37° C. cell culture incubator. The following day, media was replaced and fresh media containing 20 ng/mL IL-13 and compound 5 or vehicle was added to each well, then incubated again for 24 hours in a 37° C. cell culture incubator. The process was repeated once more for a 24-hour period.\nTo determine levels of arachidonic acid and linoleic acid metabolites after compound treatment, cell media was replaced with fresh Primary Cell media without IL-13. ALOX15 substrate (arachidonic acid or linoleic acid) was added to each well at a concentration of 1.5 μM and cells further incubated 37° C. for 1 hour. Media was collected from each well and quenched with an equal volume of LC/MS extraction buffer (methanol, 60 mM ascorbic acid, 0.1% acetic acid).\nFrom the quenched media samples, compound 5 and compound 3 were also quantified. Compound 3 was quantified using LC-MS/MS (QTrap5500, Applied Biosystems). […] Compound 5 was quantified using LC-MS/MS (QTrap5500, Applied Biosystems). […]"}, "POSTN mRNA": {"system": "POSTN mRNA", "test": "POSTN mRNA by RT-qPCR in human nasal epithelial primary cells", "format": "cell-based", "details": "5 μM or 1 μM, 3 x 24 hours with 20 ng/mL IL-13", "experimental": "as §1\n(§2) ALOX15 and POSTN mRNA levels were measured by RT-qPCR. […] The level of ALOX15 mRNA from each sample was measured in triplicate by real-time qPCR on an Applied Biosystems 7500 Fast Real-Time PCR machine using the TaqMan Gene Expression Assay for human ALOX15 (ThermoFisher, assay #Hs00993765_g1). The level of PPIA mRNA was measured in biplex reactions using TaqMan Gene Expression Assay (ThermoFisher, assay #Hs99999904_ml) and used to determine relative ALOX15 mRNA levels in each well using the delta-delta Ct method. […] Relative POSTN mRNA levels were measured as above using TaqMan Gene Expression Assay specific for human POSTN mRNA (ThermoFisher, assay #Hs00170815_m1). […]"}, "[2]": {"target": "T1, human lipoxygenase (ALOX15 Active Human Recombinant Protein) (Homo sapiens, UniProt P16050)", "T1 sequence (P16050 1-662)": "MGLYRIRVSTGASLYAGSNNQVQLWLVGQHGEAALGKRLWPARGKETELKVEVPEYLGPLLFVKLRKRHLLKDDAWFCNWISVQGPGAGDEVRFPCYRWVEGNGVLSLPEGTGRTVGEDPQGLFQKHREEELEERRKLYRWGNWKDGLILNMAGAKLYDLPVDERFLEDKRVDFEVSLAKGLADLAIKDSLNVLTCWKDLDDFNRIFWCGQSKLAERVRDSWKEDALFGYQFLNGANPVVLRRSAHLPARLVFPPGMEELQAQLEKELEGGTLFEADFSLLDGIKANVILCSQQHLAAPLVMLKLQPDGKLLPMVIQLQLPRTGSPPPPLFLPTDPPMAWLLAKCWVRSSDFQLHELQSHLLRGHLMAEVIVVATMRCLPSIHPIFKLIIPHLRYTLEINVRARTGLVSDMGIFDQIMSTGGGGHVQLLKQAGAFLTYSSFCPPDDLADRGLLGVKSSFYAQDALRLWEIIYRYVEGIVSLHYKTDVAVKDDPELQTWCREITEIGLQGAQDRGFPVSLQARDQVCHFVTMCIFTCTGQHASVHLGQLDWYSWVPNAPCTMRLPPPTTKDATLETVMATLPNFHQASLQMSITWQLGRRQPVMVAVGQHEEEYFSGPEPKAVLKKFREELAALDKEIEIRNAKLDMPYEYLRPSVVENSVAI", "test": "Recombinant human ALOX15 assay (DPPP fluorescence)", "protocol": "Within a minute of phosphatase addition, a white precipitate appeared.\nThis mixture was incubated for 5 min before the addition of 1.5 μL 0.2 mM arachidonic acid."}, "ALOX15 mRNA": {"system": "ALOX15 mRNA", "test": "ALOX15 mRNA by RT-qPCR in human nasal epithelial primary cells", "format": "cell-based", "details": "5 μM or 1 μM, 3 x 24 hours with 20 ng/mL IL-13", "experimental": "as §1, §2"}, "[3]": {"target": "T2, alkaline phosphatase (Phosphatase, Alkaline, Calf Intestine) (Bos taurus, UniProt P19111)", "T2 construct": "purchased EMD Millipore 524572", "T2 sequence (P19111 20-506)": "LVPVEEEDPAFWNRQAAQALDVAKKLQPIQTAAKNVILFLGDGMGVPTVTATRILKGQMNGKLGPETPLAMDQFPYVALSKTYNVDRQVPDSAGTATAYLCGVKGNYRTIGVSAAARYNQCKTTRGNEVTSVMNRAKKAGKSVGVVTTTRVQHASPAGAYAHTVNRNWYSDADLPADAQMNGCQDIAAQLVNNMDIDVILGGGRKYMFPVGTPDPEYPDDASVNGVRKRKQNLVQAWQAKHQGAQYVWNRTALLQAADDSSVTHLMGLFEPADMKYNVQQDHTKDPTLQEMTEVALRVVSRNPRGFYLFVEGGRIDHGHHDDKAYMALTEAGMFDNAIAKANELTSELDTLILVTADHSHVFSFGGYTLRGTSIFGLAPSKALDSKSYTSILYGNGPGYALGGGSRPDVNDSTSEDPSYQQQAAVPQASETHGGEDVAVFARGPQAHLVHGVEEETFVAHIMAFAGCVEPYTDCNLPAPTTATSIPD", "test": "in vitro", "format": "in vitro ADME", "experimental": "(§3) To determine if there was effect of addition phosphatase to the phosphate, 30 units of alkaline phosphatase (EMD Millipore Phosphatase, Alkaline, Calf Intestine catalog number 524572) was added to compound 5 and the UV spectrum (210-600 nm) was measured before and after addition of phosphatase. The was a shift in the absorbance maximum from 250 to 260 nm. The ratio of 250/260 went from 0.924 to 1.067 after phosphatase treatment.\n(§4) Phosphatase treatment was repeated with 0.1 unit of phosphatase (56 ug) and 0.6 mM compound 5 at a volume of 100 uL (100 mM Tris pH 8.8, 5 mM MgCl2) and monitored as function of time. […] A unit is defined as the amount that can hydrolyze 1 μmol/min of p-nitrophenyl phosphate (PNP). Meaning that 0.1 unit of enzyme was hydrolyzing 0.015 units of phosphate: a ˜6.6 fold decrease in activity relative to PNP."}, "alkaline phosphatase": {"target": "T3, alkaline phosphatase (Bos taurus, UniProt P19111)", "T3 construct": "purchased EMD Millipore 524572", "T3 sequence (P19111 20-506)": "as above", "test": "in vitro", "format": "in vitro ADME, Calf", "details": "calf (bovine), pH 8.8", "experimental": "as §3, §4"}}, "data": [{"smiles": "O=C(Nc1ccc(F)cc1Cl)c1nn(COP(=O)(O)O)c(Cl)c1Cl", "note": "[compound 5, (4,5-dichloro-3-((2-chloro-4-fluorophenyl)carbamoyl)-1H-pyrazol-1-yl)methyl dihydrogen phosphate]", "values": [{"measurement": "conversion of compound 5 to compound 3 in quenched media samples (FIG. 6)", "setting": "[1]", "result": "majority of compound 5 was converted to compound 3"}, {"measurement": "relative level of POSTN mRNA versus vehicle (FIG. 7)", "setting": "POSTN mRNA", "result": "lower"}, {"measurement": "IC50", "setting": "[2]", "result": 32, "unit": "nM"}, {"measurement": "inhibition of ALOX15", "setting": "[2]; in the absence of treatment with phosphatase", "result": "No inhibition was observed"}, {"measurement": "relative level of ALOX15 mRNA versus vehicle (FIG. 7)", "setting": "ALOX15 mRNA", "result": "lower"}, {"measurement": "decrease in phosphatase activity relative to PNP (p-nitrophenyl phosphate)", "setting": "[3]; 0.1 unit of enzyme hydrolyzing 0.015 units of phosphate", "result": "~6.6", "unit": "fold"}, {"measurement": "rate at which the phosphatase cleaved the phosphate", "setting": "[3]; 0.1 unit phosphatase, 0.6 mM compound 5, 100 uL", "result": 0.015, "unit": "µmol/min"}, {"measurement": "half-life at 0.6 mM", "setting": "alkaline phosphatase", "result": 2, "unit": "min"}]}]}
